Test system: colon inflammation induced by 2,4,6 TNBS
Test: Colon-inflammatory model induced by 2,4,6 TNBS in rats
Format: in vivo, Wistar (CD) male rats
Settings: PABD 2 g/kg/day p.o., infliximab 3.0 mg/kg/day, SASP 50 mg/kg/day; for Body weight change (body weight relative to 100% before TNBS): 2,4,6 TNBS 10 mg/rat into colon, evaluated third day, TNBS alone 91.8%; for Seriousness of inflammation (0-11 scale) / Extension of mucous membrane lesions / TNF-α level: 2,4,6 TNBS 10 mg/rat, third day; for Seriousness of inflammation (0-11 scale): TNBS alone 7.6; for Extension of mucous membrane lesions: TNBS alone 60.2%; for TNF-α level: control 12.7, TNBS alone 420.4
Source text: Examination of Anti-Inflammatory Effect in Colon-Inflammatory Model Induced by TNBS in the Case of Rats.
The 2,4,6 Trinitrobenzene-sulphonic-acid (2,4,6 TNBS) induction method represents well the pathological changes typical of patients suffering e.g. from Crohn's disease, so this model is well known and accepted in IBD-studies. The method described in Morris G. P. et al. “Hapten-induced model of chronic inflammation and ulceration in the rat colon” Gastroenterology 1989., 96(3); 795-803 was followed.
Examinations were made in Wistar (CD) male rats. Nr: 10-10/groups.
PABD powder was produced as described in Example 2; DH % of it's protein fraction was 20%.
2,4,6 TNBS=2,4,6 Trinitrobenzene-sulphonic-acid in solution.
During the method 2,4,6 TNBS (10 mg/rat) was introduced after 12 hours starving in aether-anaesthesia into the colon. Inflammation reach the maximum on the third day. The animals were sacrificed by cervalis dislocation and the results were evaluated.

Molecule | Body weight change (body weight relative to 100% before TNBS) | Seriousness of inflammation (0-11 scale) | Extension of mucous membrane lesions | TNF-α level
O=C(O)c1cc(/N=N/c2ccc(S(=O)(=O)Nc3ccccn3)cc2)ccc1O [SASP, Sulfasalazine] | 100.8% | 5.8 | 39.7% | 236.1 pg/mg protein
Infliximab: biologically active agent used in the treatment of IBD; comparator treatment | 100.0% | 5.4 | 36.4% | 212.0 pg/mg protein
